Columns and labels:
CYP2C8 = target: T1, CYP2C8 (Homo sapiens, UniProt P10632); test: Time-dependent CYP inhibition in HLMs; conditions: 10 µM zanubrutinib, 30 min pre-incubation with HLMs and NADPH
T1 sequence (P10632 1-490): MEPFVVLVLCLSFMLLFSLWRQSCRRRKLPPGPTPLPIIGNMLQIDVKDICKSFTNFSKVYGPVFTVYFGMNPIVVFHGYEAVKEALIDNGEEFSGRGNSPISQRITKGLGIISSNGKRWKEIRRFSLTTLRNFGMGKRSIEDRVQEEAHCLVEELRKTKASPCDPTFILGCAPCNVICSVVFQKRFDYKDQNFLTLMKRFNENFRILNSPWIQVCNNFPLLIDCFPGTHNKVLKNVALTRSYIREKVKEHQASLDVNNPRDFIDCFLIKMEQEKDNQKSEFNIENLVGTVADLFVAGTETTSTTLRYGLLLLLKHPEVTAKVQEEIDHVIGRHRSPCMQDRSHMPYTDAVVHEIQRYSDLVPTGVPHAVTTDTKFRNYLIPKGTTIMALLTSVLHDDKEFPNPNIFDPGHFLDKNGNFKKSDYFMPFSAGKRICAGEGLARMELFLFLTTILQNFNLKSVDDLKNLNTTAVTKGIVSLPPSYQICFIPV

OATP1B3 = target: T2, OATP1B3 (Homo sapiens, UniProt Q9NPD5); test: SLC inhibition assay in HEK293 cells; type: in vitro ADME; conditions: 0.05–5 µM
T2 sequence (Q9NPD5 1-702): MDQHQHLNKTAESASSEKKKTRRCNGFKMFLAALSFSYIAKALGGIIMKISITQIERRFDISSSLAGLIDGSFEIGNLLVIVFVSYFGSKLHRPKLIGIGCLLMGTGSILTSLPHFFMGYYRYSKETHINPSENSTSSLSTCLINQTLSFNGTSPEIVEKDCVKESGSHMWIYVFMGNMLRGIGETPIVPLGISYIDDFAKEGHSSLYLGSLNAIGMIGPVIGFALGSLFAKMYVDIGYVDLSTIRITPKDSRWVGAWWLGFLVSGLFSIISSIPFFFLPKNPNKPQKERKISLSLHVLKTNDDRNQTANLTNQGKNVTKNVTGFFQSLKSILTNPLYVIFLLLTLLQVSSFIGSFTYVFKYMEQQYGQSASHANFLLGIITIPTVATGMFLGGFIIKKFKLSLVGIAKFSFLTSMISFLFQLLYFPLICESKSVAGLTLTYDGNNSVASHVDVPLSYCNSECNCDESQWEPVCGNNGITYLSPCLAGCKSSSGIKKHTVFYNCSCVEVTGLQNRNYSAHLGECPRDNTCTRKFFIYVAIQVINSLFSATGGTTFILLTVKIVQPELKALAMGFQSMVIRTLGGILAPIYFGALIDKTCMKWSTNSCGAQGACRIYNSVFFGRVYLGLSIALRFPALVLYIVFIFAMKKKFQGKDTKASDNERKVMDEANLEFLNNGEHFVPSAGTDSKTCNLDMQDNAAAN

P-gp = P-gp (Homo sapiens, UniProt P08183); conditions: coadministration of zanubrutinib; cited from earlier work
CYP2C9 [1] = conditions: coadministration of zanubrutinib; cited from earlier work
CYP2C9 [2] = test: CYP induction in human hepatocytes; type: in vitro ADME
CYP3A [3] = conditions: cited from earlier work
[4] = cited from earlier work
CYP3A [5] = test: Time-dependent CYP inhibition in HLMs; conditions: 10 µM zanubrutinib, 30 min pre-incubation with HLMs and NADPH
OAT3 = target: T3, OAT3 (Homo sapiens, UniProt Q8TCC7); test: SLC inhibition assay in HEK293 cells; type: in vitro ADME
T3 sequence (Q8TCC7 1-542): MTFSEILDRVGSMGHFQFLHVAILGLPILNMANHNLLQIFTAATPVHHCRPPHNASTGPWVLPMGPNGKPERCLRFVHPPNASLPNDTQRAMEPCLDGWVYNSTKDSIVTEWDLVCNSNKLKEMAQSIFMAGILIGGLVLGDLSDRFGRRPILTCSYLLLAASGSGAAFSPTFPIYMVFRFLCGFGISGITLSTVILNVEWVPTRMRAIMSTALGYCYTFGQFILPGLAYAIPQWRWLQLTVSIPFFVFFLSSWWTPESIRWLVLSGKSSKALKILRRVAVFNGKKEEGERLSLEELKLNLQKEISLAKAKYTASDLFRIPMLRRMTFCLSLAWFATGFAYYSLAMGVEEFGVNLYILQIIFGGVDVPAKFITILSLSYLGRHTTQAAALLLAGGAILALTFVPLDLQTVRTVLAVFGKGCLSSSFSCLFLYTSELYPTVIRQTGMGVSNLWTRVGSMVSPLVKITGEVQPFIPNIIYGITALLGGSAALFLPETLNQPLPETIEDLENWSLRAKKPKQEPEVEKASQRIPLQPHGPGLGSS

CYP1A2 = target: T4, CYP1A2 (Homo sapiens, UniProt P05177); test: biochemical; type: in vitro ADME
T4 sequence (P05177 1-516): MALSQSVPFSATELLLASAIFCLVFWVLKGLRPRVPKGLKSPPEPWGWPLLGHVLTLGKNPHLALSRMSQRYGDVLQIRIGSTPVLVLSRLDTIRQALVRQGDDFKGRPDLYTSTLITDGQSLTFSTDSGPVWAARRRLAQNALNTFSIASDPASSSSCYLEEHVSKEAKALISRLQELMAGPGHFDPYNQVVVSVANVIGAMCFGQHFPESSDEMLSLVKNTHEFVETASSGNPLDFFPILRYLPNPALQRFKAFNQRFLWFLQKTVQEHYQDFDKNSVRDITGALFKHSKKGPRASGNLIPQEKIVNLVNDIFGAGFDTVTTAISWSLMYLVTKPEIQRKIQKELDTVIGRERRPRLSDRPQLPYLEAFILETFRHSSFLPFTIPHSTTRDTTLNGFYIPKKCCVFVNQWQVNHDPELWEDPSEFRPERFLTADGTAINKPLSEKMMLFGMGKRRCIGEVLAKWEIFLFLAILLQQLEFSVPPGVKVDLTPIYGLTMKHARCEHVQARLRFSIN

CYP2B6 = test: CYP induction in human hepatocytes; type: in vitro ADME
[6] = DDI basic model value for induction
[7] = human, cryopreserved human hepatocytes
[8] = static model term, induction in liver
[9] = human, HEK293 cells overexpressing OAT3 (and MOCK cells), probe estrone sulfate

Chain of P-gp (P08183 whole entry): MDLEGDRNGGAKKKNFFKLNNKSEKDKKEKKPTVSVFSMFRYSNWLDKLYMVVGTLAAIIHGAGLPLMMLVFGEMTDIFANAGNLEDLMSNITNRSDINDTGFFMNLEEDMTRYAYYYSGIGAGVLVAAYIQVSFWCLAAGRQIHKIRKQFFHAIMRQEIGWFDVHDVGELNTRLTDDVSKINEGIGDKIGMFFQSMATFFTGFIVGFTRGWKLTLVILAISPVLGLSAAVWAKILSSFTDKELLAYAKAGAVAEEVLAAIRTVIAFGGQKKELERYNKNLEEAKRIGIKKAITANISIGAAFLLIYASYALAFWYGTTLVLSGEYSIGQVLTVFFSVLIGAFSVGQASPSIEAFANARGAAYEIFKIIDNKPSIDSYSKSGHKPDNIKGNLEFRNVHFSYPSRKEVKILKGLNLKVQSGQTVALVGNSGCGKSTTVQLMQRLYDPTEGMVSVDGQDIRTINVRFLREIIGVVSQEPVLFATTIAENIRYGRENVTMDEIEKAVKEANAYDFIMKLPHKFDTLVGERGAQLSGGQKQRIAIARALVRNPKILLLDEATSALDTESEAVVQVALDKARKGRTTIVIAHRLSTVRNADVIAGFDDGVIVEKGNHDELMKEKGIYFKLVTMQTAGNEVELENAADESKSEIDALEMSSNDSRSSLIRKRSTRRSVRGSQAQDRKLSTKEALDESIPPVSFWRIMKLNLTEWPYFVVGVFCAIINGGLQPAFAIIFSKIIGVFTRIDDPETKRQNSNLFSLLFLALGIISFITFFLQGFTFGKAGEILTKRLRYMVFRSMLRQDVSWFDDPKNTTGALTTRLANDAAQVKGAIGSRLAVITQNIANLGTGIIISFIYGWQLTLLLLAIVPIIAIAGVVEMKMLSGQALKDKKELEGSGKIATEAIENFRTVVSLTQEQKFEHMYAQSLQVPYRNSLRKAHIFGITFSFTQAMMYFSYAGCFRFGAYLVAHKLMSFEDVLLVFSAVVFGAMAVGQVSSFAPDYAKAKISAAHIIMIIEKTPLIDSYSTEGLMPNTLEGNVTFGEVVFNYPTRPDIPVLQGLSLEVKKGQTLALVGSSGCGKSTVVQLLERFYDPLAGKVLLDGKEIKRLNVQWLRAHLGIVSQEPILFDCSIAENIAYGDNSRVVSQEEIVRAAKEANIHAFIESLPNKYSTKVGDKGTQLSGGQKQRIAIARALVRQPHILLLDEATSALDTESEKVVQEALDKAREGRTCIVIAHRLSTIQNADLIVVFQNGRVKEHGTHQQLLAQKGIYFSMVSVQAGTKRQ

C=CC(=O)N1CCC([C@@H]2CCNc3c(C(N)=O)c(-c4ccc(Oc5ccccc5)cc4)nn32)CC1 [zanubrutinib]
Percent loss of enzymatic activity (CYP2C8): 21.9% | Inhibition of uptake activity (OATP1B3): not inhibited | Increase of C max of P-gp probe digoxin (P-gp): 34% | Effect on the clinical PK of warfarin (CYP2C9 [1]): no remarkable effect | R 3 (CYP2C9 [2]; [6]): […] | EC50 at 3 days (CYP2C9 [2]; [7]): […] | Ch (CYP2C9 [2]; [8]): […] | Reduction in AUC0‐inf of zanubrutinib (CYP3A [3]; co-administered with CYP3A inducer rifampin): 13.5 fold | Increase in AUC0‐inf of zanubrutinib (CYP3A [3]; co-administered with CYP3A inhibitor itraconazole): 3.8 fold | C max (mean steady‐state concentration) ([4]; 160 mg BID, dose-escalation study, ref data on file): 338 ng/mL | ka (first‐order absorption rate constant) ([4]; estimated from population PK): 0.526 | Percent loss of enzymatic activity (CYP3A [5]): 19.2% | Inhibition of uptake activity (OAT3; 0.05–5 µM): not inhibited | activity at 0.05 µM (OAT3; [9]): 90 ± 4.2% | activity at 0.2 µM (OAT3; [9]): 97.8 ± 7.7% | activity at 1 µM (OAT3; [9]): 113 ± 27% | activity at 5 µM (OAT3; [9]): 199 ± 34% | IC50 (CYP1A2): 121 µM | Ki (CYP1A2; Ki, phenacetin, Ki = IC50/2): 60.5 µM | Ki (CYP1A2; Kiu, phenacetin, unbound Ki): 47.8 µM | R1 (CYP1A2; phenacetin, DDI basic model, hepatic): 1.00 | Ah (CYP1A2; phenacetin, static model term, liver inhibition): 1.00 | R 3 (CYP2B6; [6]): 0.55 | EC50 at 2 days (CYP2B6; [7]): 730 nM | Ch (CYP2B6; [8]): 1.23

Source: PMC8524670 (Pharmacology Research & Perspectives, 2021)
